Marks after values point to notes of the source that are not given here.
Tests used:
PEDV [1] = experiment: Growth performance of nursery pigs challenged with PEDV, narasin in feed; type: in vivo, pig; conditions: for numerical increase of overall ADG compared to the control / numerical increase of overall G:F compared to the control: overall (Day 0 to 14)
Source text: Eighty-one weaning stage (21.8+/−0.6 days) commercial crossbred piglets (Wilson's Prairie View Farms, Burlington, Wis.) free of PEDV infection arrived at the site and six were used as potential replacement animals during the pre-challenge period (Day −7 to Day 0). Six piglets were removed at Day 0 immediately prior to PEDV challenge, resulting in fifteen pens containing five piglets/pen (n=75) animals. There were five pens per treatment. For balance of sentinel piglets within a block, a total of thirty-nine piglets of one gender and thirty-six of the other gender were used. The use of five pens (twenty-five piglets) per treatment group was estimated to detect significant differences (P<0.10) between treatment groups in growth performance and incidence of viral shedding.
(§1) The seventy-five piglets were randomly assigned to one of three treatment groups: control (no ionophore), narasin (30 mg/kg) and narasin (60 mg/kg). They acclimatized to their environment and were fed daily for seven days prior to exposure with PEDV on Day 0. Treatment continued for 14 days following challenge. Pigs from the three treatment groups were administered orally with 4×10^4 TCID50/mL of the PEDV isolate PEDV/USA/NC/2013/49469 (College of Veterinary Medicine, Iowa State University). The piglets were monitored daily for changes in clinical parameters, clinical score for diarrhea, depression and gauntness, rate of food consumption, and rate of body weight change and viral swabs were taken daily to determine viral shedding.
Viral shedding values was evaluated by RMANOVA and the PROC MIXED procedure of SAS (SAS, Cary, N.C.). Other variables for analysis included growth performance data (average daily gain, or ADG; average daily feed intake, or ADFI; and feed efficiency (unit of weight gain per unit of feed consumed), or G:F), incidence and severity of diarrhea, depression, and gauntness scores, and intestinal histology score and immunohistochemistry. The analysis of the growth performance outcomes were conducted using a generalized linear mixed model and the PROC MIXED procedure of SAS.
Diet formulations were manufactured at Provimi (Lewisburg, Ohio) and fed in meal form.
The effects of narasin inclusion level on mean body weights (BW), average daily weight gain (ADG), average daily feed intake (ADFI), feed efficiency (G:F), and feed conversion ratio (F:G) are shown in Table 1.

PEDV [2] = experiment: Enteric clinical observation scoring (diarrhea, depression, gauntness) of nursery pigs challenged with PEDV; type: in vivo, pig; conditions: 0, 30, 60 mg/kg feed; 14-d period
Description: as §1
Incidence and severity of the score data (diarrhea, depression, and gauntness) were summarized by frequencies and mean scores on a daily basis.
Table 2 indicates the scoring system used to measure diarrhea, depression, and gauntness. Table 3 compares the mean scores for diarrhea, depression and gauntness in nursery pigs whose diet included 0, 30 or 60 mg/kg narasin.

[3] = 60 mg/kg feed, Day 0 to 5, P<0.10

CC[C@@H](C(=O)O)[C@@H]1O[C@@H]([C@@H](C)[C@H](O)[C@H](C)C(=O)[C@H](CC)[C@H]2O[C@]3(C=C[C@@H](O)[C@]4(CC[C@@](C)([C@H]5CC[C@](O)(CC)[C@H](C)O5)O4)O3)[C@H](C)C[C@@H]2C)[C@@H](C)C[C@@H]1C [narasin]
effect of narasin level on overall growth performance (PEDV [1]; 0, 30, 60 mg/kg feed, Day 0 to 14, P>0.10): no effect | differences for ADG, ADFI, G:F, or F:G (PEDV [1]; 0, 30, 60 mg/kg feed, Day 5 to 14): no statistical differences | BW (PEDV [1]; 30 mg/kg feed, Day 0 (PEDV challenge)): 16.9 lb | ADFI (PEDV [1]; 30 mg/kg feed, Day 0 to 5): 0.68 lb | ADG (PEDV [1]; 30 mg/kg feed, Day 0 to 5): 0.38* lb | F:G (PEDV [1]; 30 mg/kg feed, Day 0 to 5): 1.93 lb:lb | G:F (PEDV [1]; 30 mg/kg feed, Day 0 to 5): 0.551 lb:lb | increase of ADG compared to the control (PEDV [1]; 30 mg/kg feed, Day 0 to 5, P<0.10): 58.3% | ADFI (PEDV [1]; 30 mg/kg feed, Day 0 to 14): 1.00 lb | ADG (PEDV [1]; 30 mg/kg feed, Day 0 to 14): 0.70 lb | F:G (PEDV [1]; 30 mg/kg feed, Day 0 to 14): 1.48 lb:lb | G:F (PEDV [1]; 30 mg/kg feed, Day 0 to 14): 0.711 lb:lb | BW (PEDV [1]; 30 mg/kg feed, Day 5): 18.7 lb | ADFI (PEDV [1]; 30 mg/kg feed, Day 5 to 14): 1.23 lb | ADG (PEDV [1]; 30 mg/kg feed, Day 5 to 14): 0.92 lb | F:G (PEDV [1]; 30 mg/kg feed, Day 5 to 14): 1.38 lb:lb | G:F (PEDV [1]; 30 mg/kg feed, Day 5 to 14): 0.772 lb:lb | BW (PEDV [1]; 30 mg/kg feed, Day 14): 26.9 lb | BW (PEDV [1]; 30 mg/kg feed, Day −7 (arrival, allotment)): 14.9* lb | ADFI (PEDV [1]; 30 mg/kg feed, Day −7 to 0): 0.37 lb | ADG (PEDV [1]; 30 mg/kg feed, Day −7 to 0): 0.29 lb | F:G (PEDV [1]; 30 mg/kg feed, Day −7 to 0): 1.33 lb:lb | G:F (PEDV [1]; 30 mg/kg feed, Day −7 to 0): 0.802 lb:lb | numerical increase of overall ADG compared to the control (PEDV [1]; 30 mg/kg feed): 7.7% | numerical increase of overall G:F compared to the control (PEDV [1]; 30 mg/kg feed): 7.9% | BW (PEDV [1]; 60 mg/kg feed, Day 0 (PEDV challenge)): 16.7 lb | ADFI (PEDV [1]; 60 mg/kg feed, Day 0 to 5): 0.71 lb | ADG (PEDV [1]; 60 mg/kg feed, Day 0 to 5): 0.48* lb | F:G (PEDV [1]; 60 mg/kg feed, Day 0 to 5): 1.56 lb:lb | G:F (PEDV [1]; 60 mg/kg feed, Day 0 to 5): 0.670* lb:lb | increase of ADG compared to the control (PEDV [1]; [3]): 100% | increase of G:F compared to 0 mg/kg narasin (PEDV [1]; [3]): 78.7% | ADFI (PEDV [1]; 60 mg/kg feed, Day 0 to 14): 1.01 lb | ADG (PEDV [1]; 60 mg/kg feed, Day 0 to 14): 0.70 lb | F:G (PEDV [1]; 60 mg/kg feed, Day 0 to 14): 1.44 lb:lb | G:F (PEDV [1]; 60 mg/kg feed, Day 0 to 14): 0.698 lb:lb | BW (PEDV [1]; 60 mg/kg feed, Day 5): 19.2 lb | ADFI (PEDV [1]; 60 mg/kg feed, Day 5 to 14): 1.22 lb | ADG (PEDV [1]; 60 mg/kg feed, Day 5 to 14): 0.85 lb | F:G (PEDV [1]; 60 mg/kg feed, Day 5 to 14): 1.42 lb:lb | G:F (PEDV [1]; 60 mg/kg feed, Day 5 to 14): 0.708 lb:lb | BW (PEDV [1]; 60 mg/kg feed, Day 14): 26.9 lb | BW (PEDV [1]; 60 mg/kg feed, Day −7 (arrival, allotment)): 14.9* lb | ADFI (PEDV [1]; 60 mg/kg feed, Day −7 to 0): 0.36 lb | ADG (PEDV [1]; 60 mg/kg feed, Day −7 to 0): 0.26* lb | F:G (PEDV [1]; 60 mg/kg feed, Day −7 to 0): 1.38 lb:lb | G:F (PEDV [1]; 60 mg/kg feed, Day −7 to 0): 0.742 lb:lb | decrease of ADG compared to the control (PEDV [1]; 60 mg/kg feed, Day −7 to 0, P<0.10): 18.8% | numerical increase of overall ADG compared to the control (PEDV [1]; 60 mg/kg feed): 7.7% | numerical increase of overall G:F compared to the control (PEDV [1]; 60 mg/kg feed): 5.9% | effect of narasin level on mean of depression scores (PEDV [2]): not affected
